Experimental data reported in patent US5641751A, “Tumor necrosis factor inhibitors” (Centocor, Inc., priority 1995, dated 1997).
pIC50: −log10 of the molar value. Read-outs that look alike come from different tables or passages of the source. Ends that are not written are not given here.

Target: T1, human TNFα (Homo sapiens, UniProt P01375)
T1 construct: purchased Biosource, Camarillo, Calif
Assay: p55 Receptor/IgG fusion protein binding assay (inhibition of TNFα capture by p55-Ig coated plate)
Conditions: inhibition of binding of TNFα to p55TNFr-IgG chimeric construct
Method: This assay was designed to identify peptides which bind to human TNFα and thereby prevent the capture of the TNFα by a microtiter plate coated with p55-Ig fusion protein. A constant concentration of human TNFα is preincubated with the test peptide and then incubated on the p55-Ig coated microtiter wells. Bound TNFα is detected using a specific antisera and an alkaline phosphatase-conjugated probe.
A 96-well, U-bottom polyvinylchloride microtiter plate was coated with 50 μl/well of p55-Ig fusion protein at 5 μg/ml in 0.01M sodium phosphate, 0.15M sodium chloride (PBS) by incubation overnight at 4° C. or 2 hours at 37° C. The fusion protein, which consists of a p55 TNF receptor protein portion and an IgG portion, can be produced as disclosed in U.S. application Ser. No. 08/010,406 filed Jan. 29, 1993 which is incorporated herein by reference. The plate was washed three times with 0.05% Tween-20 in PBS, then blocked, by adding 150 μl/well of assay buffer (10 mM N-2-hydroxyethylpiperazine-N'-[…] (HEPES) pH 7.2, containing 0.1% porcine gelatin, 0.1% Tween-80, and 0.01% sodium azide) and continuing incubation for 1 hour at 37° C. or at 4° C. for 1-7 days.
Lyophilized peptides to be tested were weighed in tared 12×75 mm polystyrene tubes and reconstituted to a concentration of 1.2 mM with assay buffer. Each suspension was sonicated in a water bath for 1-5 minutes and vortexed 15-30 seconds to disperse large particles. Serial dilutions of each peptide suspension were prepared using assay buffer in a 96-well polystyrene microtiter plate. Additional wells received Fab fragment of the mouse/human monoclonal anti-human TNFα antibody cA2 (positive control) or assay buffer (negative control). […] The polystyrene dilution plate was then sealed and incubated 1 hour at room temperature on an orbital mixer set at moderate speed.
Following the sample preincubation, blocker was discarded from the p55-Ig coated plate and blotted dry. Aliquots (50 μl) of each peptide or control were transferred into duplicate wells on the p55-Ig coated plate which was then sealed and incubated 1 hour at 37° C. Duplicate wells containing only assay buffer were included as a plate blank. After incubation the p55-Ig plate was washed three times with 0.05% Tween-20 in PBS.
To detect TNFα captured by the p55-Ig plate, all wells were incubated in succession with polyclonal rabbit anti-human TNFα (Genzyme, Boston, Mass.; 1:500 in assay buffer, 50 μl/well), biotinylated goat anti-rabbit Ig (H&L) (Vector Laboratories, Burlingame, Calif.; 1 μg/ml in assay buffer, 50 μl/well) and streptavidin-alkaline phosphatase conjugate (Pierce, Rockford, Ill.; 1 μg/ml in assay buffer, 50 μl/well). All incubations were for 1 hour at 37° C. and after each incubation the plate was washed three times with 0.05% Tween-20 in PBS. Fifty microliters of alkaline phosphatase substrate solution (alkaline buffer (Sigma, St. Louis, Mo.) diluted 1:500 in deionized water plus one 5 mg tablet of p-nitrophenyl phosphate (Sigma, St. Louis, Mo.) per 5 ml of diluted buffer) was added to all wells and incubation continued for 20 minutes at room temperature. Color development was stopped by adding to all wells 50 μl of 3N sodium hydroxide. The optical density (OD) at 405 nm was measured on a microtiter plate reader (Molecular Devices Vmax plate reader), with the plate blank wells subtracted as background. The activity of each peptide was then expressed as the percent inhibition of TNFα capture by the p55-Ig plate, relative to the amount of TNFα captured in wells containing only assay buffer (negative control), as follows:
% inhibition=100-((mean OD peptide/mean OD negative control)×100).
The inhibition of binding of TNFα to p55TNFr-IgG chimeric construct was performed as described above using several embodiments of the invention. The peptides were tested to determine the concentration necessary to inhibit TNFα by 50% (IC50) relative to TNFα activity in the absence of the peptide.

[1] = TNFα 25 ng/ml, read-out: IC50 (concentration necessary to inhibit TNFα by 50%)
[2] = highest value observed, read-out: maximum IC50 observed
[3] = lowest value observed, read-out: minimum IC50 observed

T1 sequence (P01375 77-233 limits assumed): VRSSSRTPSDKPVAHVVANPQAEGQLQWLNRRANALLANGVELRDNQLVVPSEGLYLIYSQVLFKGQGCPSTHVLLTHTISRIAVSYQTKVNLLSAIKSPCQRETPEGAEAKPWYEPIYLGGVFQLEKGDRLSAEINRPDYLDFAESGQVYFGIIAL

| Substance | pIC50 [1] | pIC50 [2] | pIC50 [3] |
| --- | --- | --- | --- |
| Ac-LLIYYVSNRYTG-NH2 [SEQ ID NO:17] | 3.81 | 3.68 | 4.29 |
| Ac-LLIYYVSNRYTGV-NH2 [SEQ ID NO:18] | 3.51 | 3.08 | 4.54 |
| Ac-NINPNNGGTIYNQFKFGKG-NH2 [SEQ ID NO:1] | 4.70 | 4.04 | 5.10 |
| Ac-SASSSVSFMYW-NH2 [SEQ ID NO:2] | 4.54 | 4.22 | 5.05 |
| Ac-VIWRGGSTDYNAAFMS-NH2 [SEQ ID NO:20] | 4.07 | 3.82 | 4.43 |
| SASSSVSFMYA-NH2 [SEQ ID NO:4] | 4.10 | 4.06 | 4.13 |
| SEQ ID NO:3: SEQ ID NO:3 in which the carboxy terminal tryptophan is tryptophan amide; comprises a fragment of SEQ ID NO:2 (SAASSVSFMYW-NH2) | 4.64 | 4.48 | 5.00 |
